# Results: patent US20230138400A1, “METHODS AND PHARMACEUTICAL COMPOSITIONS FOR REPROGRAMING IMMUNE ENVIRONMENT IN A SUBJECT IN NEED THEREOF” (INSERM (INSTITUT NATIONAL DE LA SANTE ET DE LA RECHERCHE …, priority 2016, published 2023)
# Experiments:
# [1] = tested on: naive CD8 T cells isolated from the spleen of the C57BL/6 mice; experiment: Activation of naive CD8 T cells (anti-CD3, anti-CD28, IL2) in presence of DDA, flow cytometry; type: cell-based, mouse
# Experimental: FIGS. 1A-E. Sorted naive CD4 T cells were isolated from the spleen of C57BL/6 mice and activated in the indicated Th1, Th2, Treg, or Th17 polarizing conditions as described in the “Materials and methods” section”. These cells were cultured in the presence of increasing concentrations of DDA. After 96 hours, the percentage of (A) Th1: CD4+Tbet+IFNg+, (B) Th2: CD4+GATA3+[…], (C) Treg: CD4+Foxp3+IL10+ and (D) Th17: CD4+RORgt+[…], cells was measured by flow cytometry. (E) Sorted naive CD8 T cells were isolated from the spleen of the C57BL/6 mice and activated with anti-CD3, anti-CD28 and recombinant IL2. After 96 hours, the percentage of cytotoxic T CD8+GranzymB+IFNg+ cells was measured by flow cytometry.
# FIGS. 2A-E. Sorted naive CD4 T cells isolated from the spleen of C57BL/6 mice were activated in Th1, Th2, Treg, or Th17 polarizing conditions as indicated in the “Materials and methods” section”. After 96 h, increasing concentrations of DDA was added on polarized CD4 T cells for 24 h. Then the percentage of (A) CD4+Tbet+IFNg+, (B) CD4+GATA3+[…], (C) CD4+Foxp3+IL10+ and (D) CD4+RORgt+[…] cells was measured by flow cytometry. (E) Sorted naïve CD8 T cells were isolated from the spleen of the C57BL/6 mice and activated with anti-CD3, anti-CD28 and recombinant IL2. After 96 h, increasing concentrations of DDA was added on activated CD8 T cells for 24 h. Then the percentage of cytotoxic T CD8+GranzymB+IFNg+ cells was measured by flow cytometry.
# Cells isolation. Single-cells leukocyte suspensions were obtained from spleens of C57BL/6 mice. Naive CD4 or CD8 T cells are isolated by depletion of memory CD4 or CD8 T cells and non-CD4 or non-CD8 T cells according the manufacturer's protocol from Miltenyi kit (Miltenyi biotec). […]
# Immune cell culture. […] After 5 days of culture, cells were collected and analyzed by flow cytometry. To investigate the impact of DDA on polarization of CD4 or CD8 naive T cells, DDA or the solvent vehicle was added at the beginning of culture at Day 0 or at Day 4 and cells was analyzed at day 5 by flow cytometry.
# [2] = tested on: Unpolarized Th0 (from naive CD4 T cells of C57BL/6 mice); experiment: Unpolarized Th0 cells cultured with DDA, flow cytometry; type: cell-based, mouse
# Experimental: FIGS. 3A-D. Unpolarized Th0 (prepared from naive CD4 T cells isolated from the spleen of C57BL/6 mice were cultivated in presence of anti-CD3, anti-CD28 and recombinant IL-2 as indicated in the “Materials and methods” section”) and with gradual concentration of DDA added at day 0 of culture (condition #1) or Day 4 of culture (condition #2). At the end, for each condition, the percentage of Th1 (CD4+Tbet+IFNg+) (A,B) and Treg CD4+Foxp3+IL10+ (C,D) was measured by flow cytometry.
# Immune cell culture. Isolated CD4+ or CD8+ T cells were cultures in 96-well flat bottom plates (0.25×10^6 cells per wells) in 0.25 ml of complete RPMI 1640 media (10% FBS, 1% penicillin/Streptomycin, 1% sodium pyruvate, 1% HEPES and 50 μM b-mercaptoethanol) in the presence of 10 μg/ml plate-bound anti-mouse CD3 (2C11) and 2 μg/ml soluble α-CD28 (LEAF) in addition to 50 ng/ml of recombinant IL-2 (e-bioscience). DDA (synthesized by Affichem) diluted in the solvent vehicle was added at increasing concentration (0-1-10-100 and 1000 nM). […] After 5 days of culture, cells were collected and analyzed by flow cytometry. To investigate the impact of DDA on polarization of CD4 or CD8 naive T cells, DDA or the solvent vehicle was added at the beginning of culture at Day 0 or at Day 4 and cells was analyzed at day 5 by flow cytometry.
# [3] = tested on: tumor side lymph nodes; experiment: T cells in tumor side lymph nodes after DDA, flow cytometry; type: in vivo, mouse
# Experimental: FIGS. 20A-C. The priming of T cells inside tumor side lymph node is dependent of the LXR expressed by tumor cells. Animals were grafted with tumor cells and treated as described in FIG. 2. At the end of the experiments, tumor side lymph nodes (mesenteric, auxiliary and brachial) were collected, dissociated and stimulated in vitro with 50 ng/ml of PMA (Sigma), 500 ng/ml Ionomycin (Sigma) and 1/1000 of golgi stop (ebiosicence) during 3 h at 370 to analyze by flow cytometry the phenotype of T cells. (A-C) The dots in the graphs represent the relative number of (A) T regulatory cells (CD4+ Foxp3+), (B) Th1 CD4+ cells (CD4+ T-bet+) and (C) cytotoxic CD8+ T cells (CD8+ Granzym B+ IFNγ+). The vehicle was normalized to 1. Graphs are representative of three independent experiments.
# Organ dissociation and flow cytometry. The tumor-side lymph nodes were dissociated manually while for the tumor, gentlemac technology (Miltenyi) was used. Then, the suspension of tumor cells or lymph node were stimulated with 50 ng/ml of PMA (Sigma), 500 ng/ml Ionomycin (Sigma) and 1/1000 of golgi stop (ebiosicence) during 3 h at 37° C. After that, the single cell suspension were stained with the indicated fluorescent-labelled antibodies: anti mouse α-CD4, α-CD8, α-T-bet, α-Foxp3, α-granzyme B, α-PD-1, α-CD44, α-Ly6C, α-Ly6G, α-CD11b, α-CD11c, α-CD206 IL10, α-CD86 as well as live/dead stain purchased from eBioscience or Biolegend. Intracellular staining for T-bet, Foxp3, and Granzyme B, was performed according the manufacturer's protocol from Biolegend. To set the gates, flow cytometry dot plots were based on comparison with isotype control. Flow cytometry measurements of single-cells suspension were performed on a Fortessa 20X (BD pharmingen) and data were analyzed using FlowJo software.
# [4] = tested on: tumor cells implanted in mice; conditions: de Medina et al., Nat Commun. 2013; cited from earlier work
smiles,measurement,setting,value
"CC(C)CCCC(C)[C@H]1CCC2C3C[C@@H](NCCc4cnc[nH]4)[C@@]4(O)C[C@@H](O)CC[C@]4(C)C3CC[C@@]21C (stereo partly drawn) [DDA, 5a-hydroxy-6b-[2-(1H-imidazol-4-yl)ethylamino]cholestan-3b-ol]",concentration from which differentiation of naïve CD8 T cells into functional cytotoxic CD8 T cells is increased,"[1]; DDA added at day 0, 96 h, CD8+GranzymB+IFNg+",≥ 10 nM
same,concentration from which differentiation of naïve CD8 T cells into functional cytotoxic CD8 T cells is increased,[1]; DDA added at day 4 for 24 h,≥ 1 nM
same,CD8 T cells phenotype,[1]; data not shown,no significant effect
same,Th0 into Th1 differentiation,"[2]; unpolarized Th0, DDA at day 0 or day 4 (FIG. 3)",does not activated
same,differentiation of Th0 into Treg phenotype,"[2]; unpolarized Th0, DDA at day 0 or day 4, more impressive at day 4 (FIG. 3)",inhibits
same,number of Th1CD4+ cells infiltrated into tumor side lymph nodes,[3]; 0.37 μg/kg DDA (FIG. 20),increases
same,number of Treg cells infiltrated into tumor side lymph nodes,[3]; 0.37 μg/kg DDA (FIG. 20),decreases
same,number of cytotoxic CD8 T cells infiltrated into tumor side lymph nodes,[3]; 0.37 μg/kg DDA (FIG. 20),increases
same,LXRβ dependence of priming of T cells inside tumor side lymph nodes,[3]; shLXRβ vs LXRβ expressing tumors (FIG. 20),dependent of the LXRβ
same,animal survival,[4],improves animal survival
same,growth of tumor cells implanted in mice,[4],control the growth
same,infiltration of CD3+ T lymphocytes and CD11c+ dendritic cells,[4],increased infiltration
